Measured values reported in article PMC8741243 (Journal of Enzyme Inhibition and Medicinal Chemistry, 2022).
Where two headings read alike, the source gives them in different places.

Experiments:
Assay in all cases: stopped-flow CO2 hydration
Type in all cases: biochemical
VchCAα = target: T1, VchCAα (Vibrio cholerae, UniProt Q9KMP6); details: read-out: Ki (μM)^a / VchCAα; […] h preincubation at […] °C; […] HEPES pH […] NaClO4; prodrug, lactone hydrolysed by CA esterase activity
T1 construct: gene VC_A0274
T1 sequence (Q9KMP6 21-239 limits assumed): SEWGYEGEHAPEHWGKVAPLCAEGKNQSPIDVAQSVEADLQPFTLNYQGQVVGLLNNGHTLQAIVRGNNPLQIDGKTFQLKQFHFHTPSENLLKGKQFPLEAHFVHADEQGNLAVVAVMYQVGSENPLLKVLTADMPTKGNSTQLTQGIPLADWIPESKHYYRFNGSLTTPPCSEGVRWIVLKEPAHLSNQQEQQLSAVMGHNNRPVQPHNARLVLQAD

NgCAα = target: T2, NgCAα (Neisseria gonorrhoeae, UniProt Q50940)
T2 construct: gene cah; recombinant, obtained in-house as described earlier
T2 sequence (Q50940 27-252): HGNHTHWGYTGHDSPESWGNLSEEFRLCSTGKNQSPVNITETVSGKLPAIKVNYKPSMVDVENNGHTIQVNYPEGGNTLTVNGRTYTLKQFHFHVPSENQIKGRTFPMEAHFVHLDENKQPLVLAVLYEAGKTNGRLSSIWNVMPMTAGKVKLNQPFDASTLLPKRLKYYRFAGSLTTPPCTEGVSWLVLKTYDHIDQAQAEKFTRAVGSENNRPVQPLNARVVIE

hCA I = target: T3, hCA I (Homo sapiens, UniProt P00915)
T3 construct: gene CA1; recombinant, obtained in-house as described earlier
T3 sequence (P00915 2-261): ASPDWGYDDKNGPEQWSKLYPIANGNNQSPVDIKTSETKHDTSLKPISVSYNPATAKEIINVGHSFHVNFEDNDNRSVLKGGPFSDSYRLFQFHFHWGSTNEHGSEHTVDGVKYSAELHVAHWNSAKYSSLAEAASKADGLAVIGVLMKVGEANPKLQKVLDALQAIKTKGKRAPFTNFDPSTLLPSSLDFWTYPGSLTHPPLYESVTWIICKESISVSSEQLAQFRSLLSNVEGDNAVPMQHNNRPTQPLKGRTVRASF

hCA II = target: T4, hCA II (Homo sapiens, UniProt P00918)
T4 construct: gene CA2; recombinant, obtained in-house as described earlier

SMILES	Ki (VchCAα) [µM]	Ki (NgCAα; read-out: Ki (μM)^a / NgCAα) [µM]	Ki (hCA I; read-out: Ki (μM)^a / hCA I) [µM]	Ki (hCA II; read-out: Ki (μM)^a / hCA II) [µM]	Ki (hCA I) [µM]	Ki (NgCAα) [µM]	Ki (hCA II) [µM]
O=c1ccc2ccccc2o1 [compound 1, simple unsubstituted coumarin 1]	94.7	81.6					
O=c1ccc2cc(O)ccc2o1 [compound 2, 2]	77.5	92.4	192	683			
O=c1ccc2ccc(O)cc2o1 [compound 3, 3]	68.5	77.1					
O=c1cc(O)c2ccccc2o1 [compound 4, 4]	92.2				394	94.7	513
O=c1oc2ccccc2cc1O [compound 5, 5]	290	110	490	625			
Nc1ccc2c(C(F)(F)F)cc(=O)oc2c1 [compound 7, 7]	95	97.1	940	733			
CCN(CC)c1ccc2c(C)cc(=O)oc2c1 [compound 8, 4-methyl-7-diethylamino-coumarin]	53.9	28.6	517	559			
CC(=O)c1c(O)ccc2ccc(=O)oc12 [compound 9, 7-hydroxy-8-acetyl-coumarin]	39.8	42.5	949	646			
Cc1cc2ccc(O)cc2oc1=O [compound 10, 10]	66.8	68	137	297			
CCOC(=O)Cc1cc(=O)oc2cc(O)ccc12 [compound 11, 11]	439	469	749	876			
O=c1cc(O)c2ccc(O)cc2o1 [compound 12, 12]	66	77.6	182	758			
CCOC(=O)c1cc2ccc(O)cc2oc1=O [compound 13, 13]	432	395	900	961			
CC(=O)c1cc2ccc(O)cc2oc1=O [compound 14, 14]	303	395	470	786			
